Data taken from the supplement of paper PMC8617591.

What was measured:
[1] = tested on: Mycobacterium tuberculosis Erdman (autoluminescent); assay: GRinf, maximum normalised growth rate inhibition (three-drug combination) (unitless (-1 to 1)); higher = less effect (negative = killing)
Method: (§1)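 DiaMOND equipotent three-drug combination dose responses (10 doses, 1.5- or 2-fold spacing, centred on IC90) against autoluminescent M. tuberculosis Erdman in 8 in vitro models. Read-out is OD600, or luminescence for the intracellular and dormancy models, normalised to untreated wells. Hill-fit Einf, AUC25 and GRinf are potency metrics; FIC50 and FIC90 are total Loewe fractional inhibitory concentrations as log2 (negative = synergy).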

[2] = tested on: Mycobacterium tuberculosis Erdman (autoluminescent); assay: total FIC50 (Loewe) at 50% inhibition, three-drug combination (log2); higher = more antagonistic
Method: as §1

[3] = tested on: Mycobacterium tuberculosis Erdman (autoluminescent); assay: Einf, fitted maximum growth inhibition of three-drug combination (fraction); higher = stronger maximal inhibition
Method: as §1

[4] = tested on: Mycobacterium tuberculosis Erdman (autoluminescent); assay: AUC25, normalised area under dose response up to IC25 (three-drug combination) (fraction (0-1)); higher = more potent at low dose
Method: as §1

[5] = tested on: Mycobacterium tuberculosis Erdman (autoluminescent); assay: total FIC90 (Loewe) at 90% inhibition, three-drug combination (log2); higher = more antagonistic
Method: as §1

CC(=O)NC[C@H]1CN(c2ccc(N3CCOCC3)c(F)c2)C(=O)O1 [linezolid] + NC(=O)c1cnccn1 [pyrazinamide] + CO[C@H]1/C=C/O[C@@]2(C)Oc3c(C)c(O)c4c(O)c(c(/C=N/N5CCN(C6CCCC6)CC5)c(O)c4c3C2=O)NC(=O)/C(C)=C\C=C\[C@H](C)[C@H](O)[C@@H](C)[C@@H](O)[C@@H](C)[C@H](OC(C)=O)[C@@H]1C [rifapentine]
Details | AUC25, [4] | Einf, [3] | GRinf, [1] | total FIC50, [2] | total FIC90, [5]
in vitro model: acidic pH 5.7, time point: constant (~7 days, model-specific) | 0.105 | 0.91 | -0.206 | 0.0539 | –
in vitro model: acidic pH 5.7, time point: terminal (~4-5 doublings, model-specific) | 0.0872 | 0.992 | -0.258 | -0.0159 | –
in vitro model: intracellular J774, time point: constant = terminal | – | 0.947 | -0.174 | – | -0.0473

Details | AUC25, [4] | Einf, [3] | GRinf, [1] | total FIC50, [2] | total FIC90, [5]
in vitro model: butyrate, time point: constant (~7 days, model-specific) | 0.0966 | 0.892 | 0.08 | -0.0866 | –
in vitro model: butyrate, time point: terminal (~4-5 doublings, model-specific) | 0.0673 | 0.94 | 0.0873 | 0.038 | -0.132
in vitro model: cholesterol 0.05 mM, time point: constant (~7 days, model-specific) | 0.143 | 0.758 | -0.43 | – | –
in vitro model: cholesterol 0.05 mM, time point: terminal (~4-5 doublings, model-specific) | 0.139 | 0.938 | -0.446 | 0.219 | –
in vitro model: cholesterol-high 0.2 mM, time point: constant (~7 days, model-specific) | 0.112 | 0.952 | -0.497 | 0.301 | –
in vitro model: cholesterol-high 0.2 mM, time point: terminal (~4-5 doublings, model-specific) | 0.0909 | 1 | -0.945 | 0.319 | -0.0261
in vitro model: dormancy (butyrate + nitrate, low O2), time point: constant (~7 days, model-specific) | 0.0577 | 0.867 | 0.245 | 0.405 | 0.766
in vitro model: dormancy (butyrate + nitrate, low O2), time point: terminal (~4-5 doublings, model-specific) | 0.0343 | 0.976 | -0.12 | 0.486 | 0.153
in vitro model: standard 7H9 glycerol, time point: constant = terminal | 0.0547 | 0.876 | 0.183 | 0.187 | –
in vitro model: valerate, time point: constant (~7 days, model-specific) | 0.0698 | 0.865 | 0.0833 | -0.277 | –
in vitro model: valerate, time point: terminal (~4-5 doublings, model-specific) | 0.0324 | 0.921 | 0.0692 | -0.0139 | -0.406

NNC(=O)c1ccncc1 [isoniazid] + CC(=O)NC[C@H]1CN(c2ccc(N3CCOCC3)c(F)c2)C(=O)O1 [linezolid] + O=[N+]([O-])c1cn2c(n1)OC[C@@H](OCc1ccc(OC(F)(F)F)cc1)C2 [pretomanid]
Details | AUC25, [4] | Einf, [3] | GRinf, [1] | total FIC50, [2] | total FIC90, [5]
in vitro model: acidic pH 5.7, time point: constant (~7 days, model-specific) | 0.0901 | 0.793 | -0.0622 | 4.28 | –
in vitro model: acidic pH 5.7, time point: terminal (~4-5 doublings, model-specific) | 0.0757 | 0.953 | -0.252 | 4.74 | 4.06
in vitro model: intracellular J774, time point: constant = terminal | – | 0.984 | -0.382 | – | 1.1

Details | AUC25, [4] | Einf, [3] | GRinf, [1] | total FIC50, [2] | total FIC90, [5]
in vitro model: butyrate, time point: constant (~7 days, model-specific) | 0.103 | 0.921 | -0.0322 | 2.79 | 1.15
in vitro model: butyrate, time point: terminal (~4-5 doublings, model-specific) | 0.0738 | 0.963 | -0.0424 | 2.83 | 3.23
in vitro model: cholesterol 0.05 mM, time point: constant (~7 days, model-specific) | 0.129 | 0.69 | -0.147 | 1.32 | –
in vitro model: cholesterol 0.05 mM, time point: terminal (~4-5 doublings, model-specific) | 0.124 | 0.912 | -0.296 | 8.62 | 1.89
in vitro model: cholesterol-high 0.2 mM, time point: constant (~7 days, model-specific) | 0.107 | 0.924 | -0.361 | 0.772 | –
in vitro model: cholesterol-high 0.2 mM, time point: terminal (~4-5 doublings, model-specific) | 0.101 | 0.991 | -0.726 | 0.566 | 1.06
in vitro model: dormancy (butyrate + nitrate, low O2), time point: constant (~7 days, model-specific) | 0.0625 | 0.868 | 0.121 | 4.26 | 4.03
in vitro model: dormancy (butyrate + nitrate, low O2), time point: terminal (~4-5 doublings, model-specific) | 0.0423 | 0.987 | -0.233 | 4.19 | 4.02
in vitro model: standard 7H9 glycerol, time point: constant = terminal | 0.0856 | 0.917 | 0.116 | 4.72 | 6.4
in vitro model: valerate, time point: constant (~7 days, model-specific) | 0.126 | 0.88 | 0.0789 | 2.28 | 8.43
in vitro model: valerate, time point: terminal (~4-5 doublings, model-specific) | 0.0856 | 0.93 | 0.029 | 2.36 | 2.72

CC[C@@H](CO)NCCN[C@@H](CC)CO [ethambutol] + O=[N+]([O-])c1cn2c(n1)OC[C@@H](OCc1ccc(OC(F)(F)F)cc1)C2 [pretomanid] + CO[C@H]1/C=C/O[C@@]2(C)Oc3c(C)c(O)c4c(O)c(c(/C=N/N5CCN(C)CC5)c(O)c4c3C2=O)NC(=O)/C(C)=C\C=C\[C@H](C)[C@H](O)[C@@H](C)[C@@H](O)[C@@H](C)[C@H](OC(C)=O)[C@@H]1C [rifampicin]
Details | AUC25, [4] | Einf, [3] | GRinf, [1] | total FIC50, [2] | total FIC90, [5]
in vitro model: acidic pH 5.7, time point: constant (~7 days, model-specific) | 0.116 | 0.896 | -0.0878 | -0.207 | –
in vitro model: acidic pH 5.7, time point: terminal (~4-5 doublings, model-specific) | 0.0422 | 0.965 | -0.0884 | -0.118 | -0.7
in vitro model: intracellular J774, time point: constant = terminal | – | 0.979 | -0.423 | – | -2.45

Details | AUC25, [4] | Einf, [3] | GRinf, [1] | total FIC50, [2] | total FIC90, [5]
in vitro model: butyrate, time point: constant (~7 days, model-specific) | 0.0766 | 0.908 | 0.0166 | 0.153 | –
in vitro model: butyrate, time point: terminal (~4-5 doublings, model-specific) | 0.075 | 0.968 | -0.0125 | -0.0702 | -0.43
in vitro model: cholesterol 0.05 mM, time point: constant (~7 days, model-specific) | 0.123 | 0.753 | -0.232 | 0.599 | –
in vitro model: cholesterol 0.05 mM, time point: terminal (~4-5 doublings, model-specific) | 0.0708 | 0.852 | 0.216 | 0.863 | –
in vitro model: cholesterol-high 0.2 mM, time point: constant (~7 days, model-specific) | 0.0614 | 0.857 | -0.0797 | 1.05 | –
in vitro model: cholesterol-high 0.2 mM, time point: terminal (~4-5 doublings, model-specific) | 0.0471 | 0.992 | -0.568 | 1.06 | 0.833
in vitro model: dormancy (butyrate + nitrate, low O2), time point: constant (~7 days, model-specific) | 0.102 | 0.883 | 0.315 | -0.71 | –
in vitro model: dormancy (butyrate + nitrate, low O2), time point: terminal (~4-5 doublings, model-specific) | 0.085 | 0.993 | -0.16 | -0.599 | -0.673
in vitro model: standard 7H9 glycerol, time point: constant = terminal | 0.0649 | 0.919 | 0.0317 | -0.222 | –
in vitro model: valerate, time point: constant (~7 days, model-specific) | 0.0577 | 0.876 | 0.0174 | 0.363 | –
in vitro model: valerate, time point: terminal (~4-5 doublings, model-specific) | 0.033 | 0.931 | 0.0322 | 0.443 | -0.575
